Reference: patent publication US20240342080A1, “COMPOSITIONS AND METHODS FOR INHIBITING HUMAN BLOOD PROTEIN VITRONECTIN” (Sanford Burnham Prebys Medical Discovery Institute, priority 2021, published 2024)

Experiments:
[1] = test system: HAP deposited on spherules; assay: In vitro drusen model: production of HAP-protein-lipid proto-spherules (fluorescence emission reflects HAP deposited); type: biochemical
Text: (§1) An in vitro assay was designed to produce proto-spherule like those found in AMD drusen. HAP was detected with a specific fluorescent dye. This assay was used to discover inhibitors.
(§2) In Vitro Drusen Model: Production of HAP-Protein-Lipid Proto-Spherules
(§3) In this model, fluorescence emission reflected the amount of HAP deposited on spherules. The results are show in FIG. 1. […] Pyrophosphate (PPi) is a mineralization inhibitor and serves as negative control. There are many HAP-binding proteins but Vn is unique: it plays an active role in HAP mineralization.

[2] = target: T1, human blood protein vitronectin (Vn) (Homo sapiens, UniProt P04004); assay: In vitro drusen model used to test Vn antibodies as inhibitors of Vn-dependent HAP deposition; type: biochemical; conditions: FIG. 2
T1 construct: made in house; host or cells: Escherichia coli
T1 sequence (P04004 20-478): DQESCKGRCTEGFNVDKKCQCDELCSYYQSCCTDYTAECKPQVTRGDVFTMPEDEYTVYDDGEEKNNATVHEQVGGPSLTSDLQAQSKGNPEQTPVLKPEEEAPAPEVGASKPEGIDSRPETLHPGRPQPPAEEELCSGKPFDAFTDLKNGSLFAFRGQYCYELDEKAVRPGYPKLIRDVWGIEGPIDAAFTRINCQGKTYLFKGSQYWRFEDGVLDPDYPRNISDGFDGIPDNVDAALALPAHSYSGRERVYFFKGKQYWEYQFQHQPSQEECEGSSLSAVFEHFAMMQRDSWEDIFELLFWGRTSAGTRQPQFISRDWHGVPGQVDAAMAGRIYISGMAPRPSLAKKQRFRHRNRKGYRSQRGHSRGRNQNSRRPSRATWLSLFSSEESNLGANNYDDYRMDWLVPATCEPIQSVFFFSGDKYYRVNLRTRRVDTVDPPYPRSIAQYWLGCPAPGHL
Procedure: as §1
Vn was prepared from Escherichia coli. All buffer solutions were prepared with Milli-Q deionized water. For calcium-free preparations, the protein was folded by dropwise dilution from buffer T1 (20 mM Tris HCl pH 8, 6 M guanidine, 10 mM dithiothreitol) into buffer T2 (20 mM Tris HCl pH 8, 500 mM ArgCl, 300 mM NaCl, 5 mM β-mercaptoethanol, 1 mM hydroxyethyldisulfide), followed by dialysis into buffer MI (20 mM MES, pH 6.5, 300 mM NaCl) and size exclusion chromatography (Superdex 200 10/300 GL, GE Healthcare). Calcium-containing samples were prepared by supplementing buffer MI with CaCl2).
as §2, §3
This assay was used to test Vn antibodies (need details on Abc, Abm and Abn and IGF II) as potential inhibitors.

Substance | effect on HAP deposition / mineralization on spherules (fluorescence emission) ([1]; FIG. 1) | effect on HAP deposition / mineralization on spherules (fluorescence emission) ([1]; FIG. 1, listed as Vn) | effect on HAP deposition (fluorescence emission) [2]
Amyloid-β (Aβ): Amyloid-β, comparison protein in the in vitro drusen model [reference compound] | no significant effect on HAP mineralization |  | 
Vitronectin: human blood protein vitronectin, prepared from Escherichia coli | increases HAP deposition on spherules in a dose-dependent and time-dependent manner | promotes HAP formation | promotes HAP deposition in a dose- and time-dependent manner
